Assay results taken from ChEMBL document CHEMBL1201862, “PubChem BioAssay data set” (2004).
Calls of active or inactive are those of the source. No rule for the calls is given here.

Molecular target: T1, Exodeoxyribonuclease V (Escherichia coli (strain K12), UniProt P04993+P07648+P08394)
T1 sequence (P04993 whole entry): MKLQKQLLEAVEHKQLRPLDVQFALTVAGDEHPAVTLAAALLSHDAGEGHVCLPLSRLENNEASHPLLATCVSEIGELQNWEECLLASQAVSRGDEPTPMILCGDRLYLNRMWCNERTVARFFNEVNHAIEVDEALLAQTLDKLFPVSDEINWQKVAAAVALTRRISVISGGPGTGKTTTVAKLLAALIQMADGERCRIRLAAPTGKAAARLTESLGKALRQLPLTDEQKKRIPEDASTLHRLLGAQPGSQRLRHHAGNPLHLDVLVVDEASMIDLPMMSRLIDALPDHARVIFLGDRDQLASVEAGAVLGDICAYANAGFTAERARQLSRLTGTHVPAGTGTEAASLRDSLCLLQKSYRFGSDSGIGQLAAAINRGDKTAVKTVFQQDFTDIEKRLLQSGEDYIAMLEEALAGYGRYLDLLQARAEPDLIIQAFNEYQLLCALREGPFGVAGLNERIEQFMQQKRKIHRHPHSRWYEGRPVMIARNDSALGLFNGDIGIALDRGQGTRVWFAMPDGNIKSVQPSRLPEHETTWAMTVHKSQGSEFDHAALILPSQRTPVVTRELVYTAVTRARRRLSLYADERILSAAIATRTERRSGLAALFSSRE
T1 sequence (P07648 whole entry): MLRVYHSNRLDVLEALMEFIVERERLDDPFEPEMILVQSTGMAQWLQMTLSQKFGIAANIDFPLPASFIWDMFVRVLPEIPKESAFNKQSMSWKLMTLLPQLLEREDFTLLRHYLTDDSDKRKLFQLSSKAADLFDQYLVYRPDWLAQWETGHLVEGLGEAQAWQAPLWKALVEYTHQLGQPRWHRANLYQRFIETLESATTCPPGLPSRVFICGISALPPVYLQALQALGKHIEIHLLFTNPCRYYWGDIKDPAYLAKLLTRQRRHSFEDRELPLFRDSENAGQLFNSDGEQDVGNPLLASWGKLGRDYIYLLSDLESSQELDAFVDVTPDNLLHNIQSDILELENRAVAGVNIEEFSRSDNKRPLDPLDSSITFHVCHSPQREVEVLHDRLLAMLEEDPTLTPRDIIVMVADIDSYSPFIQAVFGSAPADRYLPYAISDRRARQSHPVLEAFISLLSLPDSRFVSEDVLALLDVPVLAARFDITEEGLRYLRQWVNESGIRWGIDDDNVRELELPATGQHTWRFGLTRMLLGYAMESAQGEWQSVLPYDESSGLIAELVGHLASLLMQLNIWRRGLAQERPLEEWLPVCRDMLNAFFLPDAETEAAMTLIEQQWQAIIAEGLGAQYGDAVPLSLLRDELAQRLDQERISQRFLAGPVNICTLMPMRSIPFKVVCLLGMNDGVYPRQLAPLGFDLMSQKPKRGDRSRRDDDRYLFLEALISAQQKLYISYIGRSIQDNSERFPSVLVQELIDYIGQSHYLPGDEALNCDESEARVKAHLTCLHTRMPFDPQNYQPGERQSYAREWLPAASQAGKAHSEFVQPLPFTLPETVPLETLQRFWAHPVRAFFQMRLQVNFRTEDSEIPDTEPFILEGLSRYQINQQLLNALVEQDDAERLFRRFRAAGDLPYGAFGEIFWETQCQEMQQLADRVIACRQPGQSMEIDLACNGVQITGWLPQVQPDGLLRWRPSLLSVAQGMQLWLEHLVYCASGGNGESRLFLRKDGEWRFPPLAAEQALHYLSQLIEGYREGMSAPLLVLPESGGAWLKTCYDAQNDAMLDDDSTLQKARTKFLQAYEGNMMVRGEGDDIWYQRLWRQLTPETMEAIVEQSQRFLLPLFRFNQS
T1 sequence (P08394 whole entry): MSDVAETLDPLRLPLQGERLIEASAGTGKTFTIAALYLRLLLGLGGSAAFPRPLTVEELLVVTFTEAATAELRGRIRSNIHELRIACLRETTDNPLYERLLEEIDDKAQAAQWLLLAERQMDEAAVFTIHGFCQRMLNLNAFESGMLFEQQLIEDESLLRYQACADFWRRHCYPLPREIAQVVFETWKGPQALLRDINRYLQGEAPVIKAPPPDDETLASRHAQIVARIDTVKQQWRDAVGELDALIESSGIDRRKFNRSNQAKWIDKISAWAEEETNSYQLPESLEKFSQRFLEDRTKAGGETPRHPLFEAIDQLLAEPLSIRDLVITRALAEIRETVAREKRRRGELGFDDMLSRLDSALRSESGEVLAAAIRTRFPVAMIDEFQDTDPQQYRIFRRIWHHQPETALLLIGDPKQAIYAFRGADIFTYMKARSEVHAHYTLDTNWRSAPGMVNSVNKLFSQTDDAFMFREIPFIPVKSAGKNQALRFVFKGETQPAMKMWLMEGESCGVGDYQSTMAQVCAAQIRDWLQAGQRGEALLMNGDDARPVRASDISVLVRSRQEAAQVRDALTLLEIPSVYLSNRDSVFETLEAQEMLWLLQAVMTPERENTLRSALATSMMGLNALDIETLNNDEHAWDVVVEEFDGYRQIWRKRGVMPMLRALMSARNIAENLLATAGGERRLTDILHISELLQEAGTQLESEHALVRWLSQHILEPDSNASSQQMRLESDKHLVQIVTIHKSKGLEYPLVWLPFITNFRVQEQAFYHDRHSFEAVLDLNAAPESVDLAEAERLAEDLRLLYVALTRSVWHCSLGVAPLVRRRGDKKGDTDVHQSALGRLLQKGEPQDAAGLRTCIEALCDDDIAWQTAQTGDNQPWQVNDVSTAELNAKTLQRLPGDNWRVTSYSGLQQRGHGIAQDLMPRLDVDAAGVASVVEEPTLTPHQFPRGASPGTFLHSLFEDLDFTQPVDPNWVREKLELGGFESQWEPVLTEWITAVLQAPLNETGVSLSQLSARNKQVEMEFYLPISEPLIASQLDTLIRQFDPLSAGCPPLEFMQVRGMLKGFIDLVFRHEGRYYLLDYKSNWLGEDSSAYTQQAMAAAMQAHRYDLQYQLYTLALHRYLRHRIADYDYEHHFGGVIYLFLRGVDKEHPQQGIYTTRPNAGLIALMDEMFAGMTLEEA
Assay: RecBCD inhibition via phage-restricted bacterial growth – absorbance, V66 E. coli, mutant T4 phage, counter-screen for AddAB inhibitor project, dose response (AID 492957)
Format: functional, cell-based, Escherichia coli str. K-12 substr. MG1655

Structure (SMILES)	IC50
O=C(Nc1cccc(NC(=O)c2ccccc2Cl)c1)c1ccc([N+](=O)[O-])o1	> 119 µM (inactive)
Cn1c(O)c(/C=N/NC(=O)c2cc3ccccc3cc2O)c2ccccc21	> 119 µM (inactive)
